Source: ChEMBL document CHEMBL1201862, “PubChem BioAssay data set” (2004)
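Exposure lasted 48 hours, with cells grown in 96-well plates and compounds tested at five concentrations. GI50: concentration for 50% inhibition of growth.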 Calls of active or inactive are those of the source. No stated cut-off is given here; in the data, active = GI50 up to about 1.1 µM and inactive = higher.

Columns and labels:
Experiment in all cases: inhibition of tumour cell growth, NCI panel, 48 h
[1] = system: 786-0
[2] = system: A498
[3] = system: A549
[4] = system: ACHN
[5] = system: CAKI-1
[6] = system: CCRF-CEM
[7] = system: COLO 205
[8] = system: DLD-1
[9] = system: DMS-114
[10] = system: EKVX
[11] = system: HCC 2998
[12] = system: HCT-116
[13] = system: HCT-15
[14] = system: HL-60
[15] = system: HOP-18
[16] = system: HOP-62
[17] = system: HOP-92
[18] = system: HT-29
[19] = system: IGROV-1
[20] = system: K562
[21] = system: KM-20L2
[22] = system: KM12
[23] = system: LOX IMVI
[24] = system: LXFL 529
[25] = system: M14
[26] = system: M19-MEL
[27] = system: MOLT-4
[28] = system: Malme-3M
[29] = system: NCI-H226
[30] = system: NCI-H23
[31] = system: NCI-H460
[32] = system: NCI-H522
[33] = system: OVCAR-3
[34] = system: OVCAR-5
[35] = system: OVCAR-8
[36] = system: RPMI-8226
[37] = system: RXF 393
[38] = system: RXF 631
[39] = system: SF-268
[40] = system: SF-295
[41] = system: SF-539
[42] = system: SK-MEL-28
[43] = system: SK-MEL-5
[44] = system: SK-OV-3
[45] = system: SN12C
[46] = system: SNB-19
[47] = system: SNB-75
[48] = system: SR
[49] = system: SW-620
[50] = system: TK-10
[51] = system: U-251
[52] = system: UACC-257
[53] = system: UACC-62
[54] = system: UO-31
[55] = system: XF498
[56] = system: DMS-273
[57] = system: OVCAR-4
[58] = system: SK-MEL-2
[59] = system: SNB-78

Question: What does the source list for `COc1ccc(C(=O)CC2=Nc3nnc(CCCCCCCc4nnc5n4C(=O)C(CC(=O)c4ccc(OC)cc4)=N5)n3C2=O)cc1`?
Answer: GI50 [1]: > 100 µM (inactive); GI50 [2]: > 100 µM (inactive); GI50 [3]: > 100 µM (inactive); GI50 [4]: > 100 µM (inactive); GI50 [5]: > 100 µM (inactive); GI50 [6]: > 100 µM (inactive); GI50 [7]: > 100 µM (inactive); GI50 [8]: > 100 µM (inactive); GI50 [9]: > 100 µM (inactive); GI50 [10]: > 100 µM (inactive); GI50 [11]: > 100 µM (inactive); GI50 [12]: > 100 µM (inactive); GI50 [13]: > 100 µM; GI50 [14]: > 100 µM (inactive); GI50 [15]: > 100 µM (inactive); GI50 [16]: > 100 µM (inactive); GI50 [17]: > 100 µM (inactive); GI50 [18]: > 100 µM (inactive); GI50 [19]: > 100 µM (inactive); GI50 [20]: > 100 µM (inactive); GI50 [21]: > 100 µM (inactive); GI50 [22]: > 100 µM (inactive); GI50 [23]: > 100 µM (inactive); GI50 [24]: > 100 µM (inactive); GI50 [25]: > 100 µM (inactive); GI50 [26]: > 100 µM (inactive); GI50 [27]: > 100 µM (inactive); GI50 [28]: > 100 µM (inactive); GI50 [29]: > 100 µM (inactive); GI50 [30]: > 100 µM (inactive); GI50 [31]: > 100 µM (inactive); GI50 [32]: > 100 µM (inactive); GI50 [33]: > 100 µM (inactive); GI50 [34]: > 100 µM (inactive); GI50 [35]: > 100 µM (inactive); GI50 [36]: > 100 µM (inactive); GI50 [37]: > 100 µM (inactive); GI50 [38]: > 100 µM (inactive); GI50 [39]: > 100 µM (inactive); GI50 [40]: > 100 µM (inactive); GI50 [41]: > 100 µM (inactive); GI50 [42]: > 100 µM (inactive); GI50 [43]: > 100 µM (inactive); GI50 [44]: > 100 µM (inactive); GI50 [45]: > 100 µM (inactive); GI50 [46]: > 100 µM (inactive); GI50 [47]: 31.6 µM (inactive); GI50 [48]: > 100 µM (inactive); GI50 [49]: > 100 µM (inactive); GI50 [50]: > 100 µM (inactive); GI50 [51]: > 100 µM (inactive); GI50 [52]: > 100 µM (inactive); GI50 [53]: > 100 µM (inactive); GI50 [54]: > 100 µM (inactive); GI50 [55]: > 100 µM (inactive)

Question: `N#CC(C(=O)CCCC(=O)Nc1ccc(Cl)cc1Cl)c1ccccc1` (configuration not stated) was tested. Which GI50 [1] did it give?
Answer: > 100 µM (inactive)

Question: What about the GI50 [3] of the same molecule?
Answer: > 100 µM (inactive)

Question: What about the GI50 [4] of the same molecule?
Answer: > 100 µM (inactive)

Question: What about the GI50 [5] of the same molecule?
Answer: > 100 µM (inactive)

Question: And the GI50 [6]?
Answer: > 100 µM (inactive)

Question: And the GI50 [7]?
Answer: > 100 µM (inactive)

Question: What about the GI50 [8] of the same molecule?
Answer: > 100 µM (inactive)

Question: What about the GI50 [9] of the same molecule?
Answer: > 100 µM (inactive)

Question: And the GI50 [56]?
Answer: > 100 µM (inactive)

Question: What about the GI50 [10] of the same molecule?
Answer: > 100 µM (inactive)

Question: And the GI50 [11]?
Answer: > 100 µM (inactive)

Question: And the GI50 [12]?
Answer: > 100 µM (inactive)

Question: And the GI50 [13]?
Answer: > 100 µM

Question: And the GI50 [14]?
Answer: > 100 µM (inactive)

Question: And the GI50 [15]?
Answer: > 100 µM (inactive)

Question: What about the GI50 [16] of the same molecule?
Answer: > 100 µM (inactive)

Question: And the GI50 [17]?
Answer: > 100 µM (inactive)

Question: And the GI50 [18]?
Answer: > 100 µM (inactive)

Question: What about the GI50 [19] of the same molecule?
Answer: > 100 µM (inactive)

Question: And the GI50 [20]?
Answer: > 100 µM (inactive)

Question: What about the GI50 [21] of the same molecule?
Answer: > 100 µM (inactive)

Question: What about the GI50 [22] of the same molecule?
Answer: > 100 µM (inactive)

Question: And the GI50 [23]?
Answer: > 100 µM (inactive)

Question: What about the GI50 [25] of the same molecule?
Answer: > 100 µM (inactive)

Question: What about the GI50 [26] of the same molecule?
Answer: > 100 µM (inactive)

Question: And the GI50 [27]?
Answer: > 100 µM (inactive)

Question: And the GI50 [28]?
Answer: > 100 µM (inactive)

Question: And the GI50 [29]?
Answer: > 100 µM (inactive)

Question: What about the GI50 [30] of the same molecule?
Answer: > 100 µM (inactive)

Question: And the GI50 [31]?
Answer: > 100 µM (inactive)

Question: And the GI50 [33]?
Answer: > 100 µM (inactive)

Question: And the GI50 [57]?
Answer: > 100 µM (inactive)

Question: What about the GI50 [34] of the same molecule?
Answer: > 100 µM (inactive)

Question: What about the GI50 [35] of the same molecule?
Answer: > 100 µM (inactive)

Question: And the GI50 [37]?
Answer: > 100 µM (inactive)

Question: And the GI50 [38]?
Answer: > 100 µM (inactive)

Question: And the GI50 [39]?
Answer: > 100 µM (inactive)

Question: And the GI50 [40]?
Answer: > 100 µM (inactive)

Question: And the GI50 [41]?
Answer: > 100 µM (inactive)

Question: What about the GI50 [42] of the same molecule?
Answer: > 100 µM (inactive)

Question: What about the GI50 [58] of the same molecule?
Answer: > 100 µM (inactive)

Question: And the GI50 [43]?
Answer: > 100 µM (inactive)

Question: What about the GI50 [44] of the same molecule?
Answer: > 100 µM (inactive)

Question: What about the GI50 [45] of the same molecule?
Answer: > 100 µM (inactive)

Question: And the GI50 [46]?
Answer: > 100 µM (inactive)

Question: What about the GI50 [59] of the same molecule?
Answer: > 100 µM (inactive)

Question: And the GI50 [48]?
Answer: > 100 µM (inactive)

Question: What about the GI50 [49] of the same molecule?
Answer: > 100 µM (inactive)

Question: What about the GI50 [50] of the same molecule?
Answer: > 100 µM (inactive)

Question: What about the GI50 [51] of the same molecule?
Answer: > 100 µM (inactive)

Question: What about the GI50 [52] of the same molecule?
Answer: > 100 µM (inactive)

Question: And the GI50 [53]?
Answer: > 100 µM (inactive)

Question: What about the GI50 [54] of the same molecule?
Answer: > 100 µM (inactive)

Question: `COc1ccc2c(c1)C(O)(C(F)(F)F)c1cc(C(=O)C(F)(F)F)c3ccccc3c1N2` (configuration not stated) was tested. Which GI50 [1] did it give?
Answer: 13.5 µM (inactive)

Question: And the GI50 [2]?
Answer: 14.3 µM (inactive)

Question: What about the GI50 [3] of the same molecule?
Answer: 11.6 µM (inactive)

Question: And the GI50 [4]?
Answer: 5.47 µM (inactive)

Question: And the GI50 [5]?
Answer: 13.7 µM (inactive)

Question: What about the GI50 [6] of the same molecule?
Answer: 7.94 µM (inactive)

Question: What about the GI50 [7] of the same molecule?
Answer: 6.75 µM (inactive)

Question: And the GI50 [8]?
Answer: 10.2 µM (inactive)

Question: And the GI50 [9]?
Answer: 10 µM (inactive)

Question: What about the GI50 [56] of the same molecule?
Answer: 11 µM (inactive)

Question: And the GI50 [10]?
Answer: 18.3 µM (inactive)

Question: What about the GI50 [11] of the same molecule?
Answer: 11.9 µM (inactive)

Question: And the GI50 [13]?
Answer: 7.35 µM

Question: What about the GI50 [14] of the same molecule?
Answer: 14.7 µM (inactive)

Question: What about the GI50 [15] of the same molecule?
Answer: 17.4 µM (inactive)

Question: And the GI50 [17]?
Answer: 16 µM (inactive)

Question: What about the GI50 [18] of the same molecule?
Answer: 7.73 µM (inactive)

Question: What about the GI50 [19] of the same molecule?
Answer: 13.8 µM (inactive)

Question: And the GI50 [20]?
Answer: 3.7 µM (inactive)

Question: What about the GI50 [21] of the same molecule?
Answer: 3.71 µM (inactive)

Question: What about the GI50 [22] of the same molecule?
Answer: 4.35 µM (inactive)

Question: And the GI50 [23]?
Answer: 4.99 µM (inactive)

Question: What about the GI50 [24] of the same molecule?
Answer: 10.3 µM (inactive)

Question: What about the GI50 [25] of the same molecule?
Answer: 5.33 µM (inactive)

Question: And the GI50 [26]?
Answer: 14.8 µM (inactive)

Question: What about the GI50 [27] of the same molecule?
Answer: 8.99 µM (inactive)

Question: What about the GI50 [29] of the same molecule?
Answer: 12.8 µM (inactive)

Question: What about the GI50 [30] of the same molecule?
Answer: 12.4 µM (inactive)

Question: What about the GI50 [31] of the same molecule?
Answer: 8.89 µM (inactive)

Question: And the GI50 [32]?
Answer: 7.74 µM (inactive)

Question: And the GI50 [33]?
Answer: 14.9 µM (inactive)

Question: And the GI50 [57]?
Answer: 10.5 µM (inactive)

Question: What about the GI50 [34] of the same molecule?
Answer: 14.4 µM (inactive)

Question: What about the GI50 [37] of the same molecule?
Answer: 11.5 µM (inactive)

Question: And the GI50 [38]?
Answer: 13.5 µM (inactive)

Question: And the GI50 [39]?
Answer: 10.2 µM (inactive)

Question: And the GI50 [40]?
Answer: 13.2 µM (inactive)

Question: And the GI50 [41]?
Answer: 16.3 µM (inactive)

Question: What about the GI50 [42] of the same molecule?
Answer: 14.6 µM (inactive)

Question: What about the GI50 [58] of the same molecule?
Answer: 12.2 µM (inactive)

Question: What about the GI50 [43] of the same molecule?
Answer: 13.7 µM (inactive)

Question: And the GI50 [44]?
Answer: 17.8 µM (inactive)

Question: What about the GI50 [46] of the same molecule?
Answer: 16 µM (inactive)

Question: What about the GI50 [47] of the same molecule?
Answer: 16.9 µM (inactive)

Question: What about the GI50 [49] of the same molecule?
Answer: 13.9 µM (inactive)

Question: What about the GI50 [50] of the same molecule?
Answer: 13.5 µM (inactive)

Question: What about the GI50 [52] of the same molecule?
Answer: 13.5 µM (inactive)

Question: And the GI50 [53]?
Answer: 4.46 µM (inactive)

Question: What about the GI50 [54] of the same molecule?
Answer: 9.86 µM (inactive)
